These results are taken from paper PMC6193120, “Substrate Specificity Analysis of Dihydrofolate/Dihydromethanopterin Reductase Homologs in Methylotrophic α-Proteobacteria” (Frontiers in Microbiology, 2018).

One data set has as its system T1, Mno-DAGK-H6.
T1 construct: gene dmrA
Description: NADPH oxidation at […] nm, anaerobic. Format: biochemical, Methylobacterium nodulans. The settings on record: 0.1 mM NADPH, pH 5.3, sodium acetate; H2SPT from partially oxidized Methanosarcina thermophila H4SPT fraction; read-out: KM(app).

The target in data set [1] is T2, M. extorquens AM1 DmrA-H4 (Methylorubrum extorquens, UniProt C5B2R8).
T2 sequence (C5B2R8 1-135): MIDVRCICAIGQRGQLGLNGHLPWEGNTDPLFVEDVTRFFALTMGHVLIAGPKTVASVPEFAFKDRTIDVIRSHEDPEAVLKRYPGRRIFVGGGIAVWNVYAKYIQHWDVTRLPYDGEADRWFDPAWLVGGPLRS
Description: NADPH oxidation at […] nm, anaerobic. In kind it is biochemical. The settings on record: 0.1 mM NADPH, pH 5.3, sodium acetate; H2SPT from partially oxidized Methanosarcina thermophila H4SPT fraction; read-out: KM(app).

The subject of a further data set is T3, Hni-DAGK-H6.
T3 construct: gene dmrA
Description: NADPH oxidation at […] nm, anaerobic. In kind it is biochemical, Hyphomicrobium nitrativorans. As to conditions: 0.1 mM NADPH, pH 5.3, sodium acetate; H2SPT from partially oxidized Methanosarcina thermophila H4SPT fraction; read-out: KM(app).

Substrate in the data set “purified protein”: Nc1nc2c(c(=O)[nH]1)N=C(CNc1ccc(C(=O)N[C@@H](CCC(=O)O)C(=O)O)cc1)CN2
Description: purified protein. Format: biochemical, Methylorubrum extorquens. The settings on record: 100 μM NADPH, pH 6.8, room temperature.

A word on the Km: it is the substrate concentration at which the rate is half of its maximum. With dihydrosarcinapterin, the Km with Mno-DAGK-H6 amounted to 695 ± 176 µM; in data set [1], 193 ± 71 µM; in the data set on Hni-DAGK-H6, 102 ± 73 µM.

B1: H6-DfrA (Methylorubrum extorquens) (protein)
chain: MAQPRISLVAAIARNGVIGRDNSLAWRLSSDLKRFKALTMGKPILMGRKTWDSIGRPLPGRRSLVITRDRSLALSDVTVVHDWDEALAAAGDDELMVVGGAEIYRLALPHADRLHLTEVDAAPEGDAYFPPFDRSLFRETLREAHGPGERDEFAFQFVDLERLGSR
With B1, the Km in the data set “purified protein” came out at 14 ± 3.0 µM.

B2: H6-DfrB (Methylorubrum extorquens) (protein)
chain: MDVRLIAAIGRRGQLGLEGDMPWGRSFPDDLRRFRELTAGGIVLVGWRTWPTVERLQGTHGRRFVVDDVKLPPTGMLVRLQEPDASGTRDRPVWIAGGAKTYARYARFVDEFVVRRVPYDGPADTWMPDLLGTPEADRTDGPYTGRSPTDKQWRPGCRRLRDR
notes: megaplasmid-encoded
Regarding B2, in “purified protein”, the Michaelis-Menten constant (Km) came to 18 ± 8.9 µM.
